Data as given in US10532085B2, “Methods for increasing intracellular activity of Hsp70” (Orphazyme A/S, priority 2010, dated 2020).

Columns and labels:
NPC−/− mice = assay: NPC1 in vivo pilot study: gait analysis; settings: 10 mg/kg IP three times per week
Description: Eight treated (rHSP70) NPC^−/− versus eight control (PBS only) NPC^−/− controls. Mice were treated IP three times per week with either 10 mg/kg of rHSP70 or vehicle alone (PBS) from 3 weeks of age. Three control and three treated mice were sacrificed at 7 or 9 weeks old (i.e. after 4 or 6 weeks of treatment, respectively). Organs were perfused (PBS), weighed and frozen for biochemical and immunohistochemical analysis.
Behavioural experiments were performed from 3 weeks of age, as described previously. Briefly, tremor analysis was performed using an automated tremor monitor (San Diego instruments) Gait analysis was performed by painting front and hind paws with non-toxic paint and allowing the mice to walk over Whatman 3M paper. Paw placement was measured to determine how closely their hind paws superimposed their front paws, the length of the stride and the width of their gait.

ASM = molecular target: T1, ASM (Homo sapiens, UniProt P17405); assay: BIAcore: binding of ASM to BMP-containing LUVs after rHsp70 pretreatment
T1 construct: made in house
T1 sequence (P17405 47-631): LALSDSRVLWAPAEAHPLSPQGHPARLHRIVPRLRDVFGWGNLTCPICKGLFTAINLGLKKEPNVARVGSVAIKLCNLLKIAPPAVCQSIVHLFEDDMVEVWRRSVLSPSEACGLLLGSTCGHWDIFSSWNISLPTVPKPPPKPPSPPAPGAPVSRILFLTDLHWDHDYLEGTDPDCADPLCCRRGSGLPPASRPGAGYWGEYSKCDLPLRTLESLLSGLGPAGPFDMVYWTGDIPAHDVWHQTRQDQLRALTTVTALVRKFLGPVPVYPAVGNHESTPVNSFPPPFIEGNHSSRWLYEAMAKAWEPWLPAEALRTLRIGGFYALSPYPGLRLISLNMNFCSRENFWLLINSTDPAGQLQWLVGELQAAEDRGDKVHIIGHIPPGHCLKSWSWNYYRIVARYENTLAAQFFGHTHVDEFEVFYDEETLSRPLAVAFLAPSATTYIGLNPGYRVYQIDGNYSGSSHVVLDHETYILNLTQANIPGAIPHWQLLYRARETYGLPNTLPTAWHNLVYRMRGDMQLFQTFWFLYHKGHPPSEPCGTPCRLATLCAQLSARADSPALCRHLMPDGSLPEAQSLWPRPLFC
Description: (§1) BMP binds ASM with high affinity and stimulates its ability to hydrolyze sphingomyelin to ceramide and phosphorylcholine. […] In order to test whether ASM is responsible for the lysosome stabilizing effect we treated the cells with desipramine, a well characterized pharmacological ASM inhibitor. […] It should be noted that akin to rHsp70, also rASM localized to the lysosomes.
For preparation of LUVs a lipid mixture consisting of 10 mol % sphingomyelin, 50 mol % phosphatidylcholine, 20 mol % cholesterol and 20 mol % BMP dissolved in organic solvents, was dried under a stream of argon and rehydrated in Tris/HCl buffer (pH 7.4). The mixture was freeze-thawed nine times in liquid nitrogen and then in an incubator at 37° C. After ultrasound bath for 15 min the mixture was passed 21 times through a polycarbonate membrane with a pore diameter of 100 nm. Surface plasmon resonance measurements were performed using a BIAcore 2000 system at 25° C. LUVs (total lipid concentration 0.1 mM) were immobilized on the surface of a L1 sensor chip (BIAcore) in PBS (loading buffer). The running buffer used was sodium acetate buffer (50 mM, pH 4.5). As a control, acid sphingomyelinase (0.2 μM, 60 μl in running buffer) was injected directly on the liposome surface. Response units between 4100 RU—5250RU were obtained. […]

NPDA cells = assay: Lysosomal stability in NPDA cells; assay type: cell-based, Human
Description: as §1
Sub-confluent cells incubated with 2 μg/ml acridine orange for 15 min at 37° C. were washed, irradiated and analyzed in Hanks balanced salt solution complemented with 3% fetal calf serum. Cells for single cell imaging were selected from 8 pre-defined areas of each well in transmitted light-mode after which the same cells were immediately visualized and exposed to blue light from USH102 100W mercury arc burner (Ushio electric) installed in a U-ULS100HG housing (Olympus) for 20 sec. Fluorescence microscopy was performed on Olympus IX-70 inverted microscope with a LCPlanF1 ×20 objective with NA=0.40. Loss of lysosomal pH gradient was quantified by counting the loss of intense red staining. A more elaborate method for assaying lysosomal integrity was developed to handle the larger lysosomal compartment of the various fibroblasts used in this study. […] The resulting timelapse movies where subsequently analysed by the integrated Zeiss LSM DUO software.

[1] = Liposome 90° light scattering, BMP; assay type: binding; settings: pH 6.0 vs pH 7.4
Description: (§2) Thus, we investigated the interaction of Hsp70 with palmitoyl-oleoyl-phosphatidylcholine (POPC) large unilamellar vesicles (LUVs) containing various membrane-associated anionic lipids, i.e. palmitoyl-oleoyl-phosphatidylserine (POPS; primarily in plasma membrane), cardiolipin (primarily mitochondrial) and BMP (primarily in late endosomes/lysosomes). Taking into account the increasingly acidic milieu of the endo-lysosomal compartment upon maturation to lysosomes, we compared the protein-lipid interactions in neutral (pH 7.4) and acidic (pH 6.0) conditions. […] As reported earlier for POPS, all negatively charged lipids enhanced the binding of rHsp70 to the liposomes at neutral pH approximately 4-fold irrespective of the charge density on the liposome surface (ranging from −1 to −2).
(§3) The tryptophan fluorescence spectra (RFI) and liposome 90° light scattering (RSI) were analyzed in a HEPES buffer (20 mM HEPES, 0.1 mM EDTA, pH 7.4 or 6.0 as indicated) employing LUVs consisting of indicated lipids essentially as described in the art. For the RFI, LUVs were added in 10 μM aliquots and spectra recorded after a 20 min stabilization period. For the RSI, recombinant proteins were added in 0.12 nmol aliquots.

[2] = Liposome 90° light scattering, POPS; assay type: binding; settings: pH 6.0 vs pH 7.4
Description: as §2, §3

[3] = test system: primary fibroblasts from Mucopolysaccharidosis type IIIA patient; assay: Lysosomal cross-sectional area, laser confocal microscopy, MPS IIIA fibroblasts; assay type: cell-based, human; settings: Alexa Fluor 488 labelled, added for 48 h; GM00879
Description: FIG. 8: Test of rhHSP70 in non-sphingolipidosis. rhHSP70 labelled with Alexa Fluor 488 (for visualization of uptake) was added for 48 h to primary fibroblasts from Mucopolysaccharidosis type IIIA (aka Sanfilippo type IIIA) patient (Coriell Cell Repository ID: GM00879). Read-out: lysosomal cross-sectional area (Primary cellular pathology), performed by laser confocal microscopy.

In the case of “rHsp70: recombinant (human) heat shock protein 70; in some tests labelled with Alexa Fluor 488”, the “gait (front:hind paw placement, stride length, gait width)” value (NPC−/− mice) is reported as “no difference”, the “subsequent binding of ASM to BMP-containing LUVs” value (ASM; higher rHsp70 concentrations) is reported as “inhibitory effect” and the “subsequent binding of ASM to BMP-containing LUVs” value (ASM; pretreatment with rHsp70 at sub-equimolar concentrations) is reported as “facilitated the subsequent binding of ASM”. The “stabilization of lysosomes in NPDA cells” value (NPDA cells) was “stabilize the lysosomes”, the “binding to BMP at acidic pH as compared to neutral pH” value [1] was ~20 times and the “binding to POPS upon acidification” value [2] was “only slightly increased”. The “lysosomal cross-sectional area (primary cellular pathology)” value [3] was “effectively reverts the lysosomal primary pathology”.
